Experimental data from ChEMBL document CHEMBL1201862, “PubChem BioAssay data set” (2004).
Where a name gives a salt, the structure may show the parent alone.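 Cultured in 96-well plates, cells were exposed to test compound for 48 hours across five concentrations. At the GI50, growth is halved.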 Active and inactive are the calls of the source. Rule as the data show it: active = GI50 up to about 1.1 µM and inactive = higher.

Assays:
Test in all cases: NCI tumour cell line growth inhibition, 48 h
SNB-75 = test system: SNB-75
CAKI-1 = test system: CAKI-1
HCT-116 = test system: HCT-116
HT-29 = test system: HT-29
MDA-MB-231 = test system: MDA-MB-231
MDA-MB-435 = test system: MDA-MB-435
786-0 = test system: 786-0
M14 = test system: M14
RXF 393 = test system: RXF 393
CCRF-CEM = test system: CCRF-CEM
NCI-H460 = test system: NCI-H460
UO-31 = test system: UO-31
SK-MEL-2 = test system: SK-MEL-2
SR = test system: SR
SF-295 = test system: SF-295
SK-MEL-5 = test system: SK-MEL-5
ACHN = test system: ACHN
MOLT-4 = test system: MOLT-4
SW-620 = test system: SW-620
NCI-H226 = test system: NCI-H226

With CCCCCCc1cc2cc(-c3csc(-c4ccc(OC)cc4)n3)c(=O)oc2cc1O the GI50 (SNB-75) was 14.7 µM (inactive), the GI50 (CAKI-1) was 6.73 µM (inactive) and the GI50 (HCT-116) was 7.19 µM (inactive). For the same compound, the GI50 (HT-29) was 96.2 µM (inactive), the GI50 (MDA-MB-231) was 11 µM (inactive) and the GI50 (MDA-MB-435) was 4.9 µM (inactive). The GI50 (786-0) was 5.28 µM (inactive), the GI50 (M14) was 12.2 µM (inactive) and the GI50 (RXF 393) was 13.1 µM (inactive). For the same compound, the GI50 (CCRF-CEM) was 22.6 µM (inactive), the GI50 (NCI-H460) was 12.2 µM (inactive) and the GI50 (UO-31) was 6.7 µM (inactive). For the same compound, the GI50 (SK-MEL-2) was 15.8 µM (inactive), the GI50 (SR) was 19.6 µM (inactive) and the GI50 (SF-295) was 13.9 µM (inactive). For the same compound, the GI50 (SK-MEL-5) was 9.06 µM (inactive), the GI50 (ACHN) was 10.9 µM (inactive) and the GI50 (MOLT-4) was 24.3 µM (inactive). For the same compound, the GI50 (SW-620) was 6.61 µM (inactive) and the GI50 (NCI-H226) was 14 µM (inactive).
In the case of Oc1c(N2CCOCC2)cc(-c2cc(N3CCOCC3)c(O)c3ccccc23)c2ccccc12, the GI50 (SNB-75) is reported as 2.26 µM (inactive), the GI50 (CAKI-1) is reported as 2.69 µM (inactive) and the GI50 (HCT-116) is reported as 2.16 µM (inactive). The GI50 (HT-29) was 2.16 µM (inactive), the GI50 (MDA-MB-231) was 1.24 µM (inactive) and the GI50 (MDA-MB-435) was 1.38 µM (inactive). The GI50 (786-0) was 1.63 µM (inactive), the GI50 (M14) was 1.56 µM (inactive) and the GI50 (RXF 393) was 1.56 µM (inactive). For the same compound, the GI50 (CCRF-CEM) was 1.48 µM (inactive), the GI50 (NCI-H460) was 2.83 µM (inactive) and the GI50 (UO-31) was 1.73 µM (inactive). For the same compound, the GI50 (SK-MEL-2) was 2.65 µM (inactive), the GI50 (SR) was 0.659 µM (active) and the GI50 (SF-295) was 1.71 µM (inactive). For the same compound, the GI50 (SK-MEL-5) was 0.422 µM (active), the GI50 (ACHN) was 2.93 µM (inactive) and the GI50 (MOLT-4) was 1.71 µM (inactive). For the same compound, the GI50 (SW-620) was 2.04 µM (inactive) and the GI50 (NCI-H226) was 10.1 µM (inactive).
With C=C(Cl)/C(=C\Br)CCC(Cl)C(C)C.C=C(Cl)/C(=C\Cl)CCC(Cl)C(C)C (stereo not given) the GI50 (SNB-75) was 18 µM (inactive), the GI50 (CAKI-1) was 17.8 µM (inactive) and the GI50 (HCT-116) was 16.1 µM (inactive). The GI50 (HT-29) was 17.7 µM (inactive), the GI50 (MDA-MB-231) was 16.5 µM (inactive) and the GI50 (MDA-MB-435) was 15.3 µM (inactive). For the same compound, the GI50 (786-0) was 15.3 µM (inactive), the GI50 (M14) was 17.4 µM (inactive) and the GI50 (RXF 393) was 11.3 µM (inactive). The GI50 (CCRF-CEM) was 5.62 µM (inactive), the GI50 (NCI-H460) was 18.1 µM (inactive) and the GI50 (UO-31) was 18.2 µM (inactive). The GI50 (SK-MEL-2) was 13.6 µM (inactive), the GI50 (SR) was 6.53 µM (inactive) and the GI50 (SF-295) was 18.8 µM (inactive). For the same compound, the GI50 (SK-MEL-5) was 13.9 µM (inactive), the GI50 (ACHN) was 16.8 µM (inactive) and the GI50 (MOLT-4) was 6.52 µM (inactive). The GI50 (SW-620) was 2.75 µM (inactive) and the GI50 (NCI-H226) was 23.4 µM (inactive).
In the case of C=C1C(=O)OC2C1C(OC(=O)/C(C)=C/C)CC(O)(CCl)C1C(O)C=C(C)C21O (stereo not given), the GI50 (SNB-75) is reported as 27.5 µM (inactive), the GI50 (CAKI-1) is reported as 4.14 µM (inactive) and the GI50 (HCT-116) is reported as 6.28 µM (inactive). The GI50 (HT-29) was 15.7 µM (inactive), the GI50 (MDA-MB-231) was 15.7 µM (inactive) and the GI50 (MDA-MB-435) was 23 µM (inactive). For the same compound, the GI50 (786-0) was 4.88 µM (inactive), the GI50 (M14) was 11.4 µM (inactive) and the GI50 (RXF 393) was 5.93 µM (inactive). The GI50 (CCRF-CEM) was 2.84 µM (inactive), the GI50 (NCI-H460) was 16.7 µM (inactive) and the GI50 (UO-31) was 15 µM (inactive). For the same compound, the GI50 (SK-MEL-2) was 21 µM (inactive), the GI50 (SR) was 3.94 µM (inactive) and the GI50 (SF-295) was 53 µM (inactive). The GI50 (SK-MEL-5) was 11 µM (inactive), the GI50 (ACHN) was 5.79 µM (inactive) and the GI50 (MOLT-4) was 3.92 µM (inactive). The GI50 (SW-620) was 3.85 µM (inactive) and the GI50 (NCI-H226) was 19.1 µM (inactive).
For CCCCOC(C)(C)/C=C/C(O)[C@](C)(O)[C@H]1[C@H](O)C[C@@]2(C)[C@@H]3CCc4c(cc(OC5OC(CO)C(O)C(O)C5O)c(O)c4C)C3(C)C(=O)C[C@]12C (stereo not given in full), the GI50 (SNB-75) was > 100 µM (inactive), the GI50 (CAKI-1) was > 100 µM (inactive) and the GI50 (HCT-116) was > 100 µM (inactive). The GI50 (HT-29) was > 100 µM (inactive), the GI50 (MDA-MB-231) was > 100 µM (inactive) and the GI50 (MDA-MB-435) was > 100 µM (inactive). For the same compound, the GI50 (786-0) was > 100 µM (inactive), the GI50 (M14) was > 100 µM (inactive) and the GI50 (RXF 393) was > 100 µM (inactive). For the same compound, the GI50 (CCRF-CEM) was > 100 µM (inactive), the GI50 (NCI-H460) was > 100 µM (inactive) and the GI50 (UO-31) was > 100 µM (inactive). The GI50 (SK-MEL-2) was > 100 µM (inactive), the GI50 (SR) was > 100 µM (inactive) and the GI50 (SF-295) was > 100 µM (inactive). For the same compound, the GI50 (SK-MEL-5) was > 100 µM (inactive), the GI50 (ACHN) was > 100 µM (inactive) and the GI50 (MOLT-4) was > 100 µM (inactive). For the same compound, the GI50 (SW-620) was > 100 µM (inactive) and the GI50 (NCI-H226) was > 100 µM (inactive).
In the case of CC(CN1c2ccccc2Sc2ccccc21)N(C)C (stereo not given) [PROMETHAZINE HYDROCHLORIDE], the GI50 (SNB-75) is reported as 3.78 µM (inactive), the GI50 (CAKI-1) is reported as 18.5 µM (inactive) and the GI50 (HCT-116) is reported as 15.5 µM (inactive). For the same compound, the GI50 (HT-29) was 16.4 µM (inactive), the GI50 (MDA-MB-231) was 17.9 µM (inactive) and the GI50 (MDA-MB-435) was 16.9 µM (inactive). The GI50 (786-0) was 14.8 µM (inactive), the GI50 (M14) was 17.3 µM (inactive) and the GI50 (RXF 393) was 20.8 µM (inactive). The GI50 (CCRF-CEM) was 20.3 µM (inactive), the GI50 (NCI-H460) was 17.9 µM (inactive) and the GI50 (UO-31) was 17.9 µM (inactive). For the same compound, the GI50 (SK-MEL-2) was 18 µM (inactive), the GI50 (SR) was 21.8 µM (inactive) and the GI50 (SF-295) was 15.4 µM (inactive). The GI50 (SK-MEL-5) was 21.1 µM (inactive), the GI50 (ACHN) was 17 µM (inactive) and the GI50 (MOLT-4) was 19.8 µM (inactive). For the same compound, the GI50 (SW-620) was 23.6 µM (inactive) and the GI50 (NCI-H226) was 19.1 µM (inactive).
For Nc1ncnc2c1nc(Cl)n2[C@@H]1O[C@@H]2COP(=O)(O)O[C@H]2[C@H]1O [TOCLADESINE], the GI50 (SNB-75) was 31.8 µM (inactive), the GI50 (CAKI-1) was 3.61 µM (inactive) and the GI50 (HCT-116) was 3.01 µM (inactive). For the same compound, the GI50 (HT-29) was 8.39 µM (inactive), the GI50 (MDA-MB-231) was 21.5 µM (inactive) and the GI50 (MDA-MB-435) was 5.41 µM (inactive). For the same compound, the GI50 (786-0) was 8.85 µM (inactive), the GI50 (M14) was 8.02 µM (inactive) and the GI50 (RXF 393) was 7.35 µM (inactive). For the same compound, the GI50 (CCRF-CEM) was 3.48 µM (inactive), the GI50 (NCI-H460) was 7.03 µM (inactive) and the GI50 (UO-31) was 16.4 µM (inactive). The GI50 (SK-MEL-2) was > 99.8 µM (inactive), the GI50 (SR) was 4.7 µM (inactive) and the GI50 (SF-295) was 51.2 µM (inactive). The GI50 (SK-MEL-5) was 152 µM (inactive), the GI50 (ACHN) was 5.05 µM (inactive) and the GI50 (MOLT-4) was 7 µM (inactive). The GI50 (SW-620) was 12.1 µM (inactive) and the GI50 (NCI-H226) was 6.18 µM (inactive).
